Results on four compounds are retold here after paper PMC11123956, “Nobiletin Stimulates Adrenal Hormones and Modulates the Circadian Clock in Mice” (Nutrients, 2024).

Read-outs that look alike come from different tables or passages of the source.

In one experiment the test system is Bmal1 mRNA. Put plainly: Real-time RT-PCR of Bmal1 mRNA in peripheral tissues. Format: in vivo, mice. As to conditions: after a single treatment. The method, then:
(§1) Male C57BL/6J mice (7 weeks old) were purchased from Charles River Japan (Kanagawa, Japan) and used for the serum hormone assay and RT-PCR. Male ICR mice were purchased from Tokyo Laboratory Animals Science Co., Ltd. (Tokyo, Japan), and female PERIOD2::LUCIFERASE (PER2::LUC) knock-in mice (ICR background) bred at Waseda University were used for blood glucose measurements and in vivo imaging assays, respectively. The mice were all housed under conditions of controlled temperature (23 °C ± 3 °C), humidity (50% ± 20%), and lighting (lights on from 07:00 to 19:00 at Taisho Pharmaceutical Co., Ltd. or from 08:00 to 20:00 at Waseda University). In the 24 h cycle, Zeitgeber time 0 (ZT0) was designated as the time when the lights were turned on, and ZT12 was designated as the time when the lights were turned off. All the mice were given access to food and tap water ad libitum, and nobiletin (10–100 mg/kg; purchased from FUJIFILM Wako Pure Chemical Corporation, Osaka, Japan) was administered by intraperitoneal (i.p.) injection in the vehicle (10 mL/kg body weight) containing 0.5% carboxymethyl cellulose (CMC). Rolipram (PDE4 inhibitor, FUJIFILM Wako Pure Chemical Corporation) and SR1078 (RORα/γ agonist, FUJIFILM Wako Pure Chemical Corporation) were also used for the experiment at 10 mg/kg in 0.5% CMC [12]. Mice were euthanized by rapid decapitation for whole blood samples.
(§2) Figure 3 Nobiletin stimulated adrenaline and corticosterone secretion, and induced acute clock gene expression changes. (A–C) Mice received intraperitoneal injections of control (0.5% CMC) or nobiletin (10 or 100 mg/kg) at ZT3. (A) Serum corticosterone at 1 h after treatment (n = 6 in each). $$$ p < 0.001 by Tukey’s multiple comparisons test. (B) Serum corticosterone and adrenaline at 1, 2, and 4 h after treatment (n = 4 in each). # p < 0.05 vs. control at each time point by Mann–Whitney test; ** p < 0.01 vs. control at each time point by Student’s t-test. (C) Blood glucose changes after treatment (n = 9 in each). Statistics of 2-way repeated ANOVA are indicated on the graph. […]
For orientation: Real-time PCR tracks product formation cycle by cycle.

A further experiment has as its system serum corticosterone. Kind of experiment: Serum corticosterone ELISA after i.p. injection. The format is in vivo, mice. As to conditions: 10 mg/kg i.p. at ZT3, 1 h after treatment. As for the experimental part: (§3) Male C57BL/6J mice (7 weeks old) were purchased from Charles River Japan (Kanagawa, Japan) and used for the serum hormone assay and RT-PCR. Male ICR mice were purchased from Tokyo Laboratory Animals Science Co., Ltd. (Tokyo, Japan), and female PERIOD2::LUCIFERASE (PER2::LUC) knock-in mice (ICR background) bred at Waseda University were used for blood glucose measurements and in vivo imaging assays, respectively. The mice were all housed under conditions of controlled temperature (23 °C ± 3 °C), humidity (50% ± 20%), and lighting (lights on from 07:00 to 19:00 at Taisho Pharmaceutical Co., Ltd. or from 08:00 to 20:00 at Waseda University). In the 24 h cycle, Zeitgeber time 0 (ZT0) was designated as the time when the lights were turned on, and ZT12 was designated as the time when the lights were turned off. […]
(§4) Serum corticosterone, adrenaline, and adreno-corticotropic hormone (ACTH) levels, and corticotropin releasing factor (CRF) in the hypothalamus, were measured using enzyme-linked immunosorbent assay (ELISA). […] Blood glucose levels were measured using a Glucose PILOT kit (Aventir Biotech, LLC, Carlsbad, CA, USA). The range of blood glucose that could be precisely measured with the kit was 20–600 mg/dL. […]

In another experiment the test system is serum adrenaline. Kind of experiment: Serum adrenaline ELISA after i.p. injection. Format: in vivo, mice. The settings on record: 10 mg/kg i.p. at ZT3, 1 h after treatment. As for the experimental part:
as §3, §4

The subject of the next experiment is Per1 mRNA. Kind of experiment: Real-time RT-PCR of Per1 mRNA in peripheral tissues. The settings on record: stomach and lung, 2 h after 10 mg/kg i.p. Format: in vivo, mice. The method, then:
as §1, §2

The test system of another experiment is Per2 mRNA. Put plainly: Real-time RT-PCR of Per2 mRNA in peripheral tissues. Format: in vivo, mice. The settings on record: stomach and lung, 2 h after 10 mg/kg i.p. As for the experimental part: as §1, with “samples. […]” for “samples.”
The next experiment relates to corticosterone. The settings on record: cited from earlier work.
Another experiment has as its system adrenaline. More on the design: method as in PMID 9245486. The settings on record: intraperitoneal, 40–200 μg/kg; cited from earlier work.
The test system of experiment [1] is CRF. More on the design: method as in PMID 9179387. The settings on record: isolated hypothalamic in vitro; cited from earlier work.
The next experiment concerns PDE4B. More on the design: method as in PMID 22451408. The settings on record: cited from earlier work.
Another experiment has as its system PDE1C. More on the design: method as in PMID 22451408. As to conditions: cited from earlier work.
In experiment [2] the test system is CRF. More on the design: method as in PMID 9179387. As to conditions: intraperitoneal injection to mice; cited from earlier work.

As to `O=C(Nc1ccc(C(O)(C(F)(F)F)C(F)(F)F)cc1)c1ccc(C(F)(F)F)cc1` [SR1078], in the experiment on Bmal1 mRNA, the Bmal1 expression entry is recorded as “did not change significantly”.

Turning to `COc1ccc(C2CNC(=O)C2)cc1OC1CCCC1` (stereo not drawn) [rolipram], the corticosterone secretion result in the experiment on serum corticosterone is reported as “detected”; with corticosterone (intraperitoneal, 40–200 μg/kg), “increases”. In addition, the values for the adrenaline secretion entry with serum adrenaline and in the experiment with adrenaline were “detected” and “increases”, respectively. Further, the “Per1 mRNA changes” value in the experiment on Per1 mRNA is reported as “detected”. Also, in the experiment with Per2 mRNA, the “Per2 mRNA changes” value is on record as “detected”. Besides, the Bmal1 expression result in the experiment on Bmal1 mRNA was “did not change”. Moreover, the serum corticosterone result with corticosterone (low dose, 1.6 and 8 μg/kg) is listed as “did not produce serum corticosterone increase”. Further, the CRF production entry with CRF [1] is “significant production of CRF”.

For `COc1cc(-c2cc(=O)c3c(O)c(OC)c(O)c(OC)c3o2)ccc1O` [Sudachitin], the “inhibition of PDE4B” value in the experiment on PDE4B is recorded as “inhibit”. Further, the “inhibition of PDE1C” value in the experiment on PDE1C is recorded as “inhibit”.

Turning to `CCCCn1c(=O)c2c(ncn2CC(C)=O)n(CCCC)c1=O` [denbufylline], the corticosterone secretion entry in the experiment with corticosterone (via the HPA system) is recorded as “promotes corticosterone secretion”. For the same compound, in the experiment on CRF [1], the CRF production entry is listed as “significant production of CRF”. Moreover, the “CRF induction in vivo” value in the experiment with CRF [2] is reported as “produced CRF induction”.
